One experiment concerns the target T1, Lck (p56^lck, active) (Homo sapiens, UniProt P06239).
T1 construct: purchased UBI, Upstate Biotech, Inc
Kind of experiment: SRC-Inhibitor-Assay (time-resolved fluorescence kinase assay), Lck. The format is biochemical. Particulars: ATP 5 μM, peptide 10 μM, enzyme 2.5 U/ml, pre-incubated 15 min at 15° C. An excerpt:
(§1) The activity of the compounds according to this invention as inhibitors for the src-family tyrosine kinases was shown by using the following assay.
(§2) SRC-Inhibitor-Assay Parameters:
(§3) Time-resolved Fluorescence Assay: Reader: Perkin Elmer, Wallac Viktor 1420-040 multilabel counter; Liquid handling system: Beckman Coulter, Biomek 2000.
(§4) ATP, Tween™ 20, 4-(2-hydroxyethyl)-1-piperazineethanesulfonic acid (HEPES) were purchased from Roche Molecular Biochemicals, MgCl2 and MnCl2 were purchased from Merck Eurolab, Tris(2-carboxyethyl)phosphine hydrochloride (TCEP) was purchased from Pierce, 384 Well low volume fluorescence plates was purchased from Falcon.
(§5) At first the enzyme is pre-incubated for 15 min. at 15° C. in aqueous solution with corresponding amounts of inhibitors according to this invention. Then the phosphorylation reaction is started by adding a reaction mixture, containing ATP, Peptide and PT66, and subsequent shaking. The proceeding of this reaction is immediately monitored using time resolved fluorescence spectroscopy in a suitable well plate reader.
(§6) The IC50-values can be obtained from the reaction rates by using a non-linear curve fit (XLfit software (ID Business Solution Ltd., Guilford, Surrey, UK))

For experiment [1], the target named is T2, Src (p60^c-src, partially purified) (Homo sapiens, UniProt P12931).
T2 construct: purchased UBI, Upstate Biotech, Inc
T2 sequence (P12931 whole entry, species assumed): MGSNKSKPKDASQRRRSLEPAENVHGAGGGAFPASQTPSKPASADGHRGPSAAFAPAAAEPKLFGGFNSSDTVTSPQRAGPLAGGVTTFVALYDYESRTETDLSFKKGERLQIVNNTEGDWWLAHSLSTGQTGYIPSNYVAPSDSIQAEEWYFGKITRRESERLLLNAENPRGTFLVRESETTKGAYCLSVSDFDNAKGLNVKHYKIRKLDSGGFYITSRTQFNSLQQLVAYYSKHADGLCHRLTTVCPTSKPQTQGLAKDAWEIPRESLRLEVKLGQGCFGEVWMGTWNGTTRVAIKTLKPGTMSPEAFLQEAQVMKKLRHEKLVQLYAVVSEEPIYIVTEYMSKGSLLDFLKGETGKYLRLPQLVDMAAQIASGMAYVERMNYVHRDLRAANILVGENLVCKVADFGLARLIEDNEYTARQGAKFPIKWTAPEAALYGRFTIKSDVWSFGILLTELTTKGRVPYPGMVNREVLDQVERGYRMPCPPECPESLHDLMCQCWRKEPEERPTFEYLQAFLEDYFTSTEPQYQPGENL
Kind of experiment: SRC-Inhibitor-Assay (time-resolved fluorescence kinase assay), Src. The format is biochemical. Particulars: ATP 5 μM, peptide 10 μM, enzyme 2.5 U/ml, pre-incubated 15 min at 15° C.
Text: as §1, §2, §3, §4, §5, §6

Each structure is given as a SMILES string.

T1 sequence (P06239 whole entry, species assumed): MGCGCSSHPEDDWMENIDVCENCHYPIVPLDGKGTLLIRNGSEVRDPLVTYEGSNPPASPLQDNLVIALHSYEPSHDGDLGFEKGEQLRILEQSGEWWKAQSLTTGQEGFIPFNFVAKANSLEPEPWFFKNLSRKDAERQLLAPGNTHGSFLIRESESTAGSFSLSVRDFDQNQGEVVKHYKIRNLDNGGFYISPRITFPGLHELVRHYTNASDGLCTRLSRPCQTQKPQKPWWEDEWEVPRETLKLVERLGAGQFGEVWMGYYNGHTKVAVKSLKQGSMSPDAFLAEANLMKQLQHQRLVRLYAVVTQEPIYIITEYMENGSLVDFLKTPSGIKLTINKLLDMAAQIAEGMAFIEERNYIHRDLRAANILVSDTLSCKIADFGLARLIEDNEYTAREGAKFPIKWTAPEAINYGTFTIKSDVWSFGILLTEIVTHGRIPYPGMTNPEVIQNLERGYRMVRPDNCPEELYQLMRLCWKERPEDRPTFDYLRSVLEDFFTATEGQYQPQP

For orientation: IC50 means the concentration that gives 50% inhibition. A low value points to greater potency. With `O=C(Nc1cnc2[nH]c(-c3ccccc3)nc2c1)c1ccccc1Cl` [Example 1-1, 2-Chloro-N-(2-phenyl-3H-imidazo[4,5-b]pyridin-6-yl)-benzamide], the IC50 against Lck (p56^lck, active) stood at 481 nM; in experiment [1], 21 nM.
`Cc1cccc(Cl)c1C(=O)Nc1cnc2[nH]c(-c3ccccc3)nc2c1` [Example 1-2, 2-Chloro-6-methyl-N-(2-phenyl-3H-imidazo[4,5-b]pyridin-6-yl)-benzamide]: the IC50 against Lck (p56^lck, active) was in the range of 40 to 9000 nM; in experiment [1] it was 5 to 300 nM.
For `O=C(Nc1cnc2[nH]c(-c3ccccc3)nc2c1)c1ccccc1Br` [Example 1-3, 2-Bromo-N-(2-phenyl-3H-imidazo[4,5-b]pyridin-6-yl)-benzamide], in that order: 40 to 9000 nM and 5 to 300 nM.
Taken in the same sequence, the figures for `Cc1ccc([N+](=O)[O-])cc1C(=O)Nc1cnc2[nH]c(-c3ccccc3)nc2c1` [Example 1-4, 2-Methyl-5-nitro-N-(2-phenyl-3H-imidazo[4,5-b]pyridin-6-yl)-benzamide] were 1000 to 9000 nM and 300 to 3500 nM.
Taken in the same sequence, the figures for `O=C(Nc1cnc2[nH]c(-c3ccccc3)nc2c1)c1cc([N+](=O)[O-])ccc1Cl` [Example 1-5, 2-Chloro-5-nitro-N-(2-phenyl-3H-imidazo[4,5-b]pyridin-6-yl)-benzamide] were 1000 to 9000 nM and 300 to 3500 nM.
`O=C(Nc1cnc2[nH]c(-c3ccccc3)nc2c1)c1ccccc1` [Example 1-6, N-(2-Phenyl-3H-imidazo[4,5-b]pyridin-6-yl)-benzamide]: the IC50 lay within 40 to 9000 nM at Lck (p56^lck, active) and 5 to 300 nM in experiment [1].
Taken in the same sequence, the figures for `COCCC(=O)Nc1cccc(-c2nc3cc(NC(=O)c4ccccc4Cl)cnc3[nH]2)c1` [Example 1-7, 2-Chloro-N-{2-[3-(3-methoxy-propionylamino)-phenyl]-3H-imidazo[4,5-b]pyridin-6-yl}-benzamide] were 40 to 9000 nM and 5 to 300 nM.
For `Cc1ccc(N)cc1C(=O)Nc1cnc2[nH]c(-c3ccccc3)nc2c1` [Example 2-1, 5-Amino-2-methyl-N-(2-phenyl-3H-imidazo[4,5-b]pyridin-6-yl)-benzamide], in that order: 160 nM and 135 nM.
As to `Nc1ccc(Cl)c(C(=O)Nc2cnc3[nH]c(-c4ccccc4)nc3c2)c1` [Example 3-1, 5-Amino-2-chloro-N-(2-phenyl-3H-imidazo[4,5-b]pyridin-6-yl)-benzamide], the IC50 lay in the range of 40 to 9000 nM at Lck (p56^lck, active) and 5 to 300 nM in experiment [1].
Taken in the same sequence, the figures for `CCN(CC)CCOc1ccc(-c2nc3cc(NC(=O)c4ccccc4Cl)cnc3[nH]2)cc1` [Example 4-1, 2-Chloro-N-{2-[4-(2-diethylamino-ethoxy)-phenyl]-3H-imidazo[4,5-b]pyridin-6-yl}-benzamide] were 40 to 9000 nM and 5 to 300 nM.
Taken in the same sequence, the figures for `COCCOc1ccc(-c2nc3cc(NC(=O)c4ccccc4Cl)cnc3[nH]2)cc1` [Example 4-2, 2-Chloro-N-{2-[4-(2-methoxy-ethoxy)-phenyl]-3H-imidazo[4,5-b]pyridin-6-yl}-benzamide] were 40 to 9000 nM and 5 to 300 nM.
For `O=C(Nc1cnc2[nH]c(-c3ccc(N4CCOCC4)cc3)nc2c1)c1ccccc1Cl` [Example 4-5, 2-Chloro-N-[2-(4-morpholin-4-yl-phenyl)-3H-imidazo[4,5-b]pyridin-6-yl]-benzamide], in that order: 49 nM and 7 nM.
In the case of `O=C(Nc1cnc2[nH]c(-c3cccs3)nc2c1)c1ccccc1Cl` [Example 4-6, 2-Chloro-N-(2-thiophen-2-yl-3H-imidazo[4,5-b]pyridin-6-yl)-benzamide], the IC50 on Lck (p56^lck, active) fell in the range of 40 to 9000 nM; in experiment [1], 5 to 300 nM.
With `O=C(Nc1cnc2[nH]c(-c3ccsc3)nc2c1)c1ccccc1Cl` [Example 4-7, 2-Chloro-N-(2-thiophen-3-yl-3H-imidazo[4,5-b]pyridin-6-yl)-benzamide], the IC50 against Lck (p56^lck, active) lay in the range of 40 to 9000 nM; in experiment [1], 5 to 300 nM.
With `CN1CCN(c2ccc(-c3nc4cc(NC(=O)c5ccccc5Cl)cnc4[nH]3)cc2)CC1` [Example 4-8, 2-Chloro-N-{2-[4-(4-methyl-piperazin-1-yl)-phenyl]-3H-imidazo[4,5-b]pyridin-6-yl}-benzamide], the IC50 was 40 to 9000 nM at Lck (p56^lck, active) and 5 to 300 nM in experiment [1].
Take `COCC(COC)NC(=O)c1cccc(-c2nc3cc(NC(=O)c4ccccc4Cl)cnc3[nH]2)c1` [Example 6-3, 2-Chloro-N-(2-{3-[2-methoxy-1-methoxymethyl-ethylcarbamoyl]-phenyl}-3H-imidazo[4,5-b]pyridin-6-yl)-benzamide]: the IC50 at Lck (p56^lck, active) lay in the range of 40 to 9000 nM; in experiment [1] it was 5 to 300 nM.
On to `Cc1ccc(-c2nc3cc(NC(=O)c4ccccc4Cl)cnc3[nH]2)cn1` [Example 7-2, 2-Chloro-N-[2-(6-methyl-pyridin-3-yl)-3H-imidazo[4,5-b]pyridine-6-yl]-benzamide], for which the IC50 against Lck (p56^lck, active) was 40 to 9000 nM; in experiment [1] it was 5 to 300 nM.
On to `CSc1cccc(-c2nc3cc(NC(=O)c4ccccc4Cl)cnc3[nH]2)c1` [Example 7-3, 2-Chloro-N-[2-(3-methylsulfanyl-phenyl)-3H-imidazo[4,5-b]pyridine-6-yl]-benzamide], for which the IC50 lay in the range of 40 to 9000 nM against Lck (p56^lck, active) and 5 to 300 nM in experiment [1].
In the case of `O=C(Nc1cnc2[nH]c(-c3ccc4[nH]cnc4c3)nc2c1)c1ccccc1Cl` [Example 7-5, N-[2-(1H-Benzoimidazol-5-yl)-3H-imidazo[4,5-b]pyridine-6-yl]-2-chloro-benzamide], the IC50 at Lck (p56^lck, active) fell in the range of 40 to 9000 nM; in experiment [1] it was 5 to 300 nM.
Taken in the same sequence, the figures for `O=C(Nc1cnc2[nH]c(-c3ccc(N4CCOCC4)nc3)nc2c1)c1ccccc1Cl` [Example 7-7, 2-Chloro-N-[2-(6-morpholin-4-yl-pyridin-3-yl)-3H-imidazo[4,5-b]pyridine-6-yl]-benzamide] were 40 to 9000 nM and 5 to 300 nM.
Taken in the same sequence, the figures for `C[S+]([O-])c1cccc(-c2nc3cc(NC(=O)c4ccccc4Cl)cnc3[nH]2)c1` (centres unmarked) [Example 9-1, 2-Chloro-N-[2-(3-methanesulfinyl-phenyl)-3H-imidazo[4,5-b]pyridine-6-yl]-benzamide] were 40 to 9000 nM and 5 to 300 nM.
For `Nc1cccc(-c2nc3cc(NC(=O)c4ccccc4Cl)cnc3[nH]2)c1` [Example 10-1, N-[2-(3-Amino-phenyl)-3H-imidazo[4,5-b]pyridine-6-yl]-2-chloro-benzamide], in that order: 40 to 9000 nM and 5 to 300 nM.
As for `CC(=O)Nc1cccc(-c2nc3cc(NC(=O)c4ccccc4Cl)cnc3[nH]2)c1` [Example 11-1, N-[2-(3-Acetylamino-phenyl)-3H-imidazo[4,5-b]pyridine-6-yl]-2-chloro-benzamide], the IC50 is 40 to 9000 nM against Lck (p56^lck, active) and 5 to 300 nM in experiment [1].
For `O=C(Nc1cnc2[nH]c(-c3ccccc3)cc2c1)c1ccccc1Cl` [Example 12-1, 2-Chloro-N-(2-phenyl-1H-pyrrolo[2,3-b]pyridine-5-yl)-benzamide], in that order: 40 to 9000 nM and 5 to 300 nM.
With `O=C(Nc1cnc2[nH]c(-c3ccccc3)cc2c1)c1ccc(Cl)cc1Cl` [Example 12-4, 2,4-Dichloro-N-(2-phenyl-1H-pyrrolo[2,3-b]pyridine-5-yl)-benzamide], the IC50 at Lck (p56^lck, active) fell in the range of 40 to 9000 nM; in experiment [1], 5 to 300 nM.
Taken in the same sequence, the figures for `Cc1cccc(Cl)c1C(=O)Nc1cnc2[nH]c(-c3ccccc3)cc2c1` [Example 12-5, 2-Chloro-6-methyl-N-(2-phenyl-1H-pyrrolo[2,3-b]pyridine-5-yl)-benzamide] were 40 to 9000 nM and 5 to 300 nM.
Turning to `Cc1ccccc1C(=O)Nc1cnc2[nH]c(-c3ccccc3)cc2c1` [Example 12-7, 2-Methyl-N-(2-phenyl-1H-pyrrolo[2,3-b]pyridine-5-yl)-benzamide], the IC50 at Lck (p56^lck, active) was 40 to 9000 nM; in experiment [1], 5 to 300 nM.
Taken in the same sequence, the figures for `COc1cc(OC)cc(C(=O)Nc2cnc3[nH]c(-c4ccccc4)cc3c2)c1` [Example 12-12, 3,5-Dimethoxy-N-(2-phenyl-1H-pyrrolo[2,3-b]pyridine-5-yl)-benzamide] were 40 to 9000 nM and 5 to 300 nM.
`COCCOc1ccc(-c2cc3cc(NC(=O)c4ccccc4OC)cnc3[nH]2)cc1` [Example 12-14, 2-Methoxy-N-{2-[4-(2-methoxy-ethoxy)-phenyl]-1H-pyrrolo[2,3-b]pyridin-5-yl}-benzamide]: the 50% inhibitory concentration (IC50) against Lck (p56^lck, active) lay within 40 to 9000 nM; in experiment [1], 5 to 300 nM.
Taken in the same sequence, the figures for `COCCN(CCOC)c1ccc(-c2nc3cc(NC(=O)c4ccccc4Cl)cnc3[nH]2)cc1F` [Example 13-1, N-(2-{4-[Bis-(2-methoxy-ethyl)-amino]-3-fluoro-phenyl}-3H-imidazo[4,5-b]pyridin-6-yl)-2-chloro-benzamide] were 40 to 9000 nM and 5 to 300 nM.
For `COCCCNc1cc(-c2nc3cc(NC(=O)c4ccccc4Cl)cnc3[nH]2)ccn1` [Example 14-1, 2-Chloro-N-{2-[2-(3-methoxy-propylamino)-pyridin-4-yl]-3H-imidazo[4,5-b]pyridin-6-yl}-benzamide], in that order: 40 to 9000 nM and 5 to 300 nM.

The values above are taken from patent publication US7618964B2, “Benzamide derivatives, their manufacture and use as pharmaceutical agents” (Hoffmann-La Roche Inc., priority 2004, dated 2009).
